{"source": "paper PMC5218480", "about": "(PLoS ONE, 2017)", "test_system": "MV-4-11 cells", "experiment": "Gene expression microarray analysis (Affymetrix PrimeView) and GSEA", "type": "cell-based, human", "design": "RFU PODN (11730768_x_at) / Fold change /veh PODN (11730768_x_at) / RFU LINC00158 (11744669_a_at) / Fold change /veh LINC00158 (11744669_a_at) / RFU DUSP10 (11751237_a_at) / Fold change /veh DUSP10 (11751237_a_at) / RFU ID3 (11757404_x_at) / Fold change /veh ID3 (11757404_x_at) / RFU PLEKHG5 (11737974_s_at) / Fold change /veh PLEKHG5 (11737974_s_at) / RFU LRRC4B (11730491_at) / Fold change /veh LRRC4B (11730491_at) / RFU GIMAP4 (11747438_a_at) / Fold change /veh GIMAP4 (11747438_a_at) / RFU KRT8 (11758183_x_at) / Fold change /veh KRT8 (11758183_x_at) / RFU CNN1 (11734310_a_at) / Fold change /veh CNN1 (11734310_a_at) / RFU VPS37D (11726825_at) / Fold change /veh VPS37D (11726825_at) / RFU C10orf10 (11716522_x_at) / Fold change /veh C10orf10 (11716522_x_at) / RFU KIR2DL2 /// KIR2DL4 /// KIR2DL5A /// KIR2DL5B /// KIR2DS1 /// KIR2DS2 /// KIR2DS3 /// KIR2DS4 /// KIR3DL3 /// KIR3DL3 /// KIR3DS1 (11738374_at) / Fold change /veh KIR2DL2 /// KIR2DL4 /// KIR2DL5A /// KIR2DL5B /// KIR2DS1 /// KIR2DS2 /// KIR2DS3 /// KIR2DS4 /// KIR3DL3 /// KIR3DL3 /// KIR3DS1 (11738374_at) / RFU C1QL1 (11718748_at) / Fold change /veh C1QL1 (11718748_at) / RFU TMPRSS4 (11747572_a_at) / Fold change /veh TMPRSS4 (11747572_a_at) / RFU HAMP (11756126_x_at) / Fold change /veh HAMP (11756126_x_at) / RFU RNFT2 (11725882_a_at) / Fold change /veh RNFT2 (11725882_a_at) / RFU NR4A2 (11747474_a_at) / Fold change /veh NR4A2 (11747474_a_at) / RFU ABCC12 (11746883_a_at) / Fold change /veh ABCC12 (11746883_a_at) / RFU TMEM136 (11760407_x_at) / Fold change /veh TMEM136 (11760407_x_at) / RFU CLDN22 /// WWC2 (11732394_at) / Fold change /veh CLDN22 /// WWC2 (11732394_at) / RFU HLA-DPB1 (11760878_x_at) / Fold change /veh HLA-DPB1 (11760878_x_at) / RFU SPINT1 (11716480_a_at) / Fold change /veh SPINT1 (11716480_a_at) / RFU GAP43 (11754022_s_at) / Fold change /veh GAP43 (11754022_s_at) / RFU A4GNT (11735810_at) / Fold change /veh A4GNT (11735810_at) / RFU PRB3 (11715151_x_at) / Fold change /veh PRB3 (11715151_x_at) / RFU TUBB4B (11761932_at) / Fold change /veh TUBB4B (11761932_at) / RFU CAPN14 (11732068_a_at) / Fold change /veh CAPN14 (11732068_a_at) / RFU TMCC2 (11721928_a_at) / Fold change /veh TMCC2 (11721928_a_at) / RFU IRGQ (11745062_a_at) / Fold change /veh IRGQ (11745062_a_at) / RFU FAM174B (11720279_a_at) / Fold change /veh FAM174B (11720279_a_at) / RFU TMPRSS4 (11748680_a_at) / Fold change /veh TMPRSS4 (11748680_a_at) / RFU FAM212B (11763350_a_at) / Fold change /veh FAM212B (11763350_a_at) / RFU PLEKHG5 (11743358_a_at) / Fold change /veh PLEKHG5 (11743358_a_at) / RFU ZSCAN30 (11745921_a_at) / Fold change /veh ZSCAN30 (11745921_a_at) / RFU CMKLR1 (11741424_a_at) / Fold change /veh CMKLR1 (11741424_a_at) / RFU LOC101060620 /// MAPK8IP1 (11723275_at) / Fold change /veh LOC101060620 /// MAPK8IP1 (11723275_at) / RFU SPTSSB (11747773_x_at) / Fold change /veh SPTSSB (11747773_x_at) / RFU PRSS12 (11739890_at) / Fold change /veh PRSS12 (11739890_at) / RFU BIN1 (11741810_x_at) / Fold change /veh BIN1 (11741810_x_at) / RFU WNT11 (11732464_a_at) / Fold change /veh WNT11 (11732464_a_at) / RFU C10orf10 (11716521_a_at) / Fold change /veh C10orf10 (11716521_a_at) / RFU C5orf56 (11738089_at) / Fold change /veh C5orf56 (11738089_at) / RFU CYB561 (11721691_x_at) / Fold change /veh CYB561 (11721691_x_at) / RFU ANKRD19P (11752326_a_at) / Fold change /veh ANKRD19P (11752326_a_at) / RFU OR2T12 /// OR2T33 /// OR2T8 (11738714_s_at) / Fold change /veh OR2T12 /// OR2T33 /// OR2T8 (11738714_s_at) / RFU VCAN (11748164_a_at) / Fold change /veh VCAN (11748164_a_at) / RFU JSRP1 (11732532_at) / Fold change /veh JSRP1 (11732532_at) / RFU KRTAP10-11 (11738290_x_at) / Fold change /veh KRTAP10-11 (11738290_x_at) / RFU MYO3A (11730013_a_at) / Fold change /veh MYO3A (11730013_a_at) / RFU EBF3 (11725865_a_at) / Fold change /veh EBF3 (11725865_a_at) / RFU CAMK2N1 (11719241_x_at) / Fold change /veh CAMK2N1 (11719241_x_at) / RFU C5orf56 (11738088_a_at) / Fold change /veh C5orf56 (11738088_a_at) / RFU OLFML3 (11715873_a_at) / Fold change /veh OLFML3 (11715873_a_at) / RFU LOC100653217 /// NTM (11731650_a_at) / Fold change /veh LOC100653217 /// NTM (11731650_a_at) / RFU MAPK11 (11762145_a_at) / Fold change /veh MAPK11 (11762145_a_at) / RFU FIZ1 (11724087_x_at) / Fold change /veh FIZ1 (11724087_x_at) / RFU OASL (11726364_x_at) / Fold change /veh OASL (11726364_x_at) / RFU SOX15 (11748057_x_at) / Fold change /veh SOX15 (11748057_x_at) / RFU CD79A (11719716_a_at) / Fold change /veh CD79A (11719716_a_at) / RFU HIST1H1D (11736915_at) / Fold change /veh HIST1H1D (11736915_at) / RFU CASKIN2 (11723855_a_at) / Fold change /veh CASKIN2 (11723855_a_at) / RFU LOC730098 (11760151_x_at) / Fold change /veh LOC730098 (11760151_x_at) / RFU OR4N2 (11742367_at) / Fold change /veh OR4N2 (11742367_at) / RFU PRRT2 (11749266_a_at) / Fold change /veh PRRT2 (11749266_a_at) / RFU SNX32 (11753110_a_at) / Fold change /veh SNX32 (11753110_a_at) / RFU CDHR5 (11726645_a_at) / Fold change /veh CDHR5 (11726645_a_at) / RFU RCAN1 (11760418_a_at) / Fold change /veh RCAN1 (11760418_a_at) / RFU FAM167A (11723789_a_at) / Fold change /veh FAM167A (11723789_a_at) / RFU FAM26E (11764081_at) / Fold change /veh FAM26E (11764081_at) / RFU ISYNA1 (11749810_s_at) / Fold change /veh ISYNA1 (11749810_s_at) / RFU ACY1 (11761880_at) / Fold change /veh ACY1 (11761880_at) / RFU 11764098_at / Fold change /veh 11764098_at / RFU SAMD14 (11745864_x_at) / Fold change /veh SAMD14 (11745864_x_at) / RFU NPB (11741838_a_at) / Fold change /veh NPB (11741838_a_at) / RFU TMPRSS6 (11731388_a_at) / Fold change /veh TMPRSS6 (11731388_a_at) / RFU KRTAP10-2 (11738614_at) / Fold change /veh KRTAP10-2 (11738614_at) / RFU ARHGAP8 /// PRR5-ARHGAP8 (11727945_x_at) / Fold change /veh ARHGAP8 /// PRR5-ARHGAP8 (11727945_x_at) / RFU KRTAP5-7 /// NADSYN1 (11734609_at) / Fold change /veh KRTAP5-7 /// NADSYN1 (11734609_at) / RFU RASL12 (11751679_a_at) / Fold change /veh RASL12 (11751679_a_at) / RFU CDKN2B (11736163_a_at) / Fold change /veh CDKN2B (11736163_a_at) / RFU PRF1 (11729649_at) / Fold change /veh PRF1 (11729649_at) / RFU, ZNF638 /// ZNF638-IT1 / Fold change vs veh, ZNF638 /// ZNF638-IT1 / RFU, PANK3 / Fold change vs veh, PANK3 / RFU, SH3YL1 / Fold change vs veh, SH3YL1 / RFU, ZEB2 / Fold change vs veh, ZEB2 / RFU, NRIP1 / Fold change vs veh, NRIP1 / RFU, PTTG1IP / Fold change vs veh, PTTG1IP / RFU, CAPN2 / Fold change vs veh, CAPN2 / RFU, MED14 / Fold change vs veh, MED14 / RFU, SNORA58 / Fold change vs veh, SNORA58 / RFU, C1orf63 / Fold change vs veh, C1orf63 / RFU, LRRFIP1 / Fold change vs veh, LRRFIP1 / RFU, NDUFAF7 / Fold change vs veh, NDUFAF7 / RFU, SLC12A2 / Fold change vs veh, SLC12A2 / RFU, IBTK / Fold change vs veh, IBTK / RFU, ESF1 / Fold change vs veh, ESF1 / Fold change vs veh, TMEM50B / RFU, TAOK1 / Fold change vs veh, TAOK1 / RFU, ACBD3 / Fold change vs veh, ACBD3 / RFU, TMA16 / Fold change vs veh, TMA16 / RFU, RWDD3 / Fold change vs veh, RWDD3 / RFU, BCAT1 / Fold change vs veh, BCAT1 / RFU, EDEM3 / Fold change vs veh, EDEM3 / RFU, TMEM33 / Fold change vs veh, TMEM33 / RFU, WDR75 / Fold change vs veh, WDR75 / RFU, AHCTF1 / Fold change vs veh, AHCTF1 / RFU, TFRC / Fold change vs veh, TFRC / RFU, ZDHHC17 / Fold change vs veh, ZDHHC17 / RFU, NOM1 / Fold change vs veh, NOM1 / RFU, ARL8B / Fold change vs veh, ARL8B / RFU, ZBTB11 / Fold change vs veh, ZBTB11 / RFU, TAMM41 / Fold change vs veh, TAMM41 / RFU, KIAA1704 /// LOC100996395 / Fold change vs veh, KIAA1704 /// LOC100996395 / RFU, ING1 / Fold change vs veh, ING1 / RFU, TRMT61B / Fold change vs veh, TRMT61B / RFU, FUBP3 / Fold change vs veh, FUBP3 / RFU, TP53 / Fold change vs veh, TP53 / RFU, TNKS2 / Fold change vs veh, TNKS2 / RFU, ZFP14 / Fold change vs veh, ZFP14 / RFU, ACTR2 / Fold change vs veh, ACTR2 / RFU, PPP3R1 / Fold change vs veh, PPP3R1 / RFU, PIK3R1 / Fold change vs veh, PIK3R1 / RFU, HNRNPA1 / Fold change vs veh, HNRNPA1 / RFU, RNF170 / Fold change vs veh, RNF170 / RFU, ZNF28 / Fold change vs veh, ZNF28 / RFU, RNGTT / Fold change vs veh, RNGTT / RFU, OGT / Fold change vs veh, OGT / RFU, BRD1 / Fold change vs veh, BRD1 / RFU, MARS / Fold change vs veh, MARS / RFU, ZNF655 / Fold change vs veh, ZNF655 / RFU, FAHD1 / Fold change vs veh, FAHD1 / RFU, BDP1 / Fold change vs veh, BDP1 / RFU, LRRCC1 / Fold change vs veh, LRRCC1 / RFU, ARID1A / Fold change vs veh, ARID1A / RFU, ZNF146 / Fold change vs veh, ZNF146 / RFU, ZNF330 / Fold change vs veh, ZNF330 / RFU, GPN3 / Fold change vs veh, GPN3 / RFU, C9orf123 / Fold change vs veh, C9orf123 / RFU, N4BP2L2 / Fold change vs veh, N4BP2L2 / RFU, ARFIP1 / Fold change vs veh, ARFIP1 / RFU, FAM179B / Fold change vs veh, FAM179B / RFU, BCL10 / Fold change vs veh, BCL10 / RFU, UHRF1BP1L / Fold change vs veh, UHRF1BP1L / RFU, BET1 / Fold change vs veh, BET1 / RFU, CNOT2 / Fold change vs veh, CNOT2 / RFU, ZNF268 / Fold change vs veh, ZNF268 / Fold change vs veh, ZNF507 / RFU, DGCR2 / Fold change vs veh, DGCR2 / RFU, WDSUB1 / Fold change vs veh, WDSUB1 / Fold change vs veh, HSP90B1 /// MIR3652 / RFU, ADSS / Fold change vs veh, ADSS / RFU, GK / Fold change vs veh, GK / RFU, ZNF148 / Fold change vs veh, ZNF148 / RFU, TAF9 / Fold change vs veh, TAF9 / RFU, SLC1A5 / Fold change vs veh, SLC1A5 / RFU, SLMO2 / Fold change vs veh, SLMO2 / RFU, ABCC4 / Fold change vs veh, ABCC4 / RFU, LOC101060439 /// RAP1B / Fold change vs veh, LOC101060439 /// RAP1B / RFU, RFX7 / Fold change vs veh, RFX7 / RFU, GTPBP10 / Fold change vs veh, GTPBP10 / RFU, CNEP1R1 / Fold change vs veh, CNEP1R1 / RFU, BIVM-ERCC5 /// ERCC5 / Fold change vs veh, BIVM-ERCC5 /// ERCC5 / RFU, ILF3 / Fold change vs veh, ILF3 / RFU 11762660_at / Fold change /veh 11762660_at / RFU VCAN (11757783_s_at) / Fold change /veh VCAN (11757783_s_at) / RFU DDX43 (11728927_at) / Fold change /veh DDX43 (11728927_at) / RFU KRT8 (11758188_x_at) / Fold change /veh KRT8 (11758188_x_at) / RFU NKD1 (11759106_at) / Fold change /veh NKD1 (11759106_at) / RFU SRD5A1 (11742802_a_at) / Fold change /veh SRD5A1 (11742802_a_at) / RFU TPSAB1 /// TPSB2 (11721975_s_at) / Fold change /veh TPSAB1 /// TPSB2 (11721975_s_at) / RFU GSTM3 (11746129_a_at) / Fold change /veh GSTM3 (11746129_a_at) / RFU IL23R (11737362_x_at) / Fold change /veh IL23R (11737362_x_at) / RFU TMEM51 (11727254_a_at) / Fold change /veh TMEM51 (11727254_a_at) / RFU PIWIL2 (11732686_x_at) / Fold change /veh PIWIL2 (11732686_x_at) / RFU ORM1 (11744905_x_at) / Fold change /veh ORM1 (11744905_x_at) / RFU CCDC152 (11743942_at) / Fold change /veh CCDC152 (11743942_at) / RFU ECM1 (11717891_a_at) / Fold change /veh ECM1 (11717891_a_at) / RFU IL23R (11748794_a_at) / Fold change /veh IL23R (11748794_a_at) / RFU TNFAIP8L3 (11732012_x_at) / Fold change /veh TNFAIP8L3 (11732012_x_at) / RFU MBOAT4 (11741988_at) / Fold change /veh MBOAT4 (11741988_at) / RFU 11764193_at / Fold change /veh 11764193_at / RFU TMEM53 (11763286_at) / Fold change /veh TMEM53 (11763286_at) / RFU MAGEB2 (11727129_at) / Fold change /veh MAGEB2 (11727129_at) / RFU TMEM200A (11744735_a_at) / Fold change /veh TMEM200A (11744735_a_at) / RFU CCDC152 (11751479_a_at) / Fold change /veh CCDC152 (11751479_a_at) / RFU FAM211A (11726209_a_at) / Fold change /veh FAM211A (11726209_a_at) / RFU RGS16 (11746705_a_at) / Fold change /veh RGS16 (11746705_a_at) / RFU VCAN (11755009_s_at) / Fold change /veh VCAN (11755009_s_at) / RFU RHOB (11743442_s_at) / Fold change /veh RHOB (11743442_s_at) / RFU RGS16 (11720943_a_at) / Fold change /veh RGS16 (11720943_a_at) / RFU RGS16 (11720944_at) / Fold change /veh RGS16 (11720944_at) / RFU, VPS4B / Fold change vs veh, VPS4B / RFU, CREB1 / Fold change vs veh, CREB1 / RFU, DNAJC13 / Fold change vs veh, DNAJC13 / RFU, GNAQ / Fold change vs veh, GNAQ / RFU, CDK5R1 / Fold change vs veh, CDK5R1 / RFU, ZRANB3 / Fold change vs veh, ZRANB3 / RFU, CUL4A / Fold change vs veh, CUL4A / RFU, CCNY / Fold change vs veh, CCNY / RFU, UFL1 / Fold change vs veh, UFL1 / RFU, COG3 / Fold change vs veh, COG3 / RFU, DIAPH2 / Fold change vs veh, DIAPH2 / RFU, SKA2 / Fold change vs veh, SKA2 / RFU, AFF3 / Fold change vs veh, AFF3 / RFU, LMF1 / Fold change vs veh, LMF1 / RFU, IPO11 / Fold change vs veh, IPO11 / RFU, DFFB / Fold change vs veh, DFFB / RFU, FOXP1 / Fold change vs veh, FOXP1 / RFU, CARD8 / Fold change vs veh, CARD8 / RFU, STRN3 / Fold change vs veh, STRN3 / RFU, ADK / Fold change vs veh, ADK / RFU, RASSF2 / Fold change vs veh, RASSF2 / RFU, WIPF1 / Fold change vs veh, WIPF1 / RFU, LARP1B / Fold change vs veh, LARP1B / RFU, RASA1 / Fold change vs veh, RASA1 / RFU, RB1 / Fold change vs veh, RB1 / RFU, PPFIA1 / Fold change vs veh, PPFIA1 / RFU, MAT2A / Fold change vs veh, MAT2A / RFU, CCT5 / Fold change vs veh, CCT5 / RFU, WDR92 / Fold change vs veh, WDR92 / RFU, CUX1 / Fold change vs veh, CUX1 / RFU, TTC7A / Fold change vs veh, TTC7A / RFU, TMEM135 / Fold change vs veh, TMEM135 / RFU, DEPTOR / Fold change vs veh, DEPTOR / RFU, CPM / Fold change vs veh, CPM / RFU, DNAJB6 / Fold change vs veh, DNAJB6 / RFU, CACNA2D3 / Fold change vs veh, CACNA2D3 / RFU, DTX4 / Fold change vs veh, DTX4 / RFU, TFCP2 / Fold change vs veh, TFCP2 / RFU, GMCL1 /// GMCL1P1 / Fold change vs veh, GMCL1 /// GMCL1P1 / RFU, AEBP2 / Fold change vs veh, AEBP2 / RFU, SNHG1 /// SNORD22 /// SNORD25 /// SNORD26 /// SNORD27 /// SNORD28 /// SNORD29 /// SNORD31 / Fold change vs veh, SNHG1 /// SNORD22 /// SNORD25 /// SNORD26 /// SNORD27 /// SNORD28 /// SNORD29 /// SNORD31 / Fold change (Aza/veh), C12orf56 (ProbeSet 11735607_a_at) / Fold change (ACY-1035/veh), C12orf56 (ProbeSet 11735607_a_at) / Fold change (Aza/veh), FGFR1OP (ProbeSet 11751329_s_at) / Fold change (ACY-1035/veh), FGFR1OP (ProbeSet 11751329_s_at) / Fold change (Aza/veh), VPS36 (ProbeSet 11739960_a_at) / Fold change (ACY-1035/veh), VPS36 (ProbeSet 11739960_a_at) / RFU SYPL1 (11715823_x_at) / Fold change /veh SYPL1 (11715823_x_at) / RFU IGFBP7 (11715501_s_at) / Fold change /veh IGFBP7 (11715501_s_at) / RFU REEP3 (11722064_at) / Fold change /veh REEP3 (11722064_at) / RFU IGLL1 (11728026_x_at) / Fold change /veh IGLL1 (11728026_x_at): dose or concentration left out as unconfirmed", "conditions": "MV-4-11 cells, 48 hours", "data": [{"smiles": "Nc1ncn([C@@H]2O[C@H](CO)[C@@H](O)[C@H]2O)c(=O)n1", "note": "[azacitidine]", "values": [{"measurement": "RFU PIWIL2 (11732686_x_at)", "result": 15.01, "unit": "RFU"}]}]}
